According to PubChem BioAssay AID1259407 (Chemical Carcinogenesis Research Information System (CCRIS), 2018):
Active and inactive are the calls of the source. No rule for the calls is given here.

System: CCRIS mutagenicity, Ames/micronucleus/aberration tests
Assay: CCRIS mutagenicity studies
[1] = Test System: AMES SALMONELLA TYPHIMURIUM, Strain/Indicator: TA98, Metabolic Activation: NONE, Method: STANDARD PLATE
[2] = Test System: AMES SALMONELLA TYPHIMURIUM, Strain/Indicator: TA100, Metabolic Activation: NONE, Method: STANDARD PLATE

In the case of `CN(N)C=O`, the mutagenic call (Test System: AMES SALMONELLA TYPHIMURIUM, Strain/Indicator: TA1535, Metabolic Activation: NONE, Method: PREINCUBATION) is reported as “inactive; negative”, the mutagenic call (Test System: AMES SALMONELLA TYPHIMURIUM, Strain/Indicator: TA1535, Metabolic Activation: RAT, LIVER, S-9, AROCLOR 1254, Method: PREINCUBATION) is reported as “inactive; negative” and the mutagenic call (Test System: AMES SALMONELLA TYPHIMURIUM, Strain/Indicator: TA1537, Metabolic Activation: NONE, Method: PREINCUBATION) is reported as “inactive; negative”. For the same compound, the mutagenic call (Test System: AMES SALMONELLA TYPHIMURIUM, Strain/Indicator: TA1537, Metabolic Activation: RAT, LIVER, S-9, AROCLOR 1254, Method: PREINCUBATION) was “inactive; negative”.
In the case of `Nc1cc2ccccc2cc1N`, the mutagenic call (Test System: AMES SALMONELLA TYPHIMURIUM, Strain/Indicator: TA98, Metabolic Activation: RAT LIVER CYTOSOL, AROCLOR 1254, Method: STANDARD PLATE) is reported as “active; positive” and the mutagenic call (Test System: AMES SALMONELLA TYPHIMURIUM, Strain/Indicator: TA98, Metabolic Activation: RAT LIVER MICROSOMES, AROCLOR 1254, Method: STANDARD PLATE) is reported as “active; positive”.
`C1=Cc2c3ccc4cccc5ccc(c6cccc1c26)c3c45` was tested, and the mutagenic call (Test System: AMES SALMONELLA TYPHIMURIUM, Strain/Indicator: TA98, Metabolic Activation: RAT, LIVER, S-9, AROCLOR 1254 (0.55 MG), Method: STANDARD PLATE) was “active; positive”, the mutagenic call (Test System: AMES SALMONELLA TYPHIMURIUM, Strain/Indicator: TA100, Metabolic Activation: RAT, LIVER, S-9, AROCLOR 1254 (0.55 MG), Method: STANDARD PLATE) was “active; positive” and the mutagenic call (Test System: AMES SALMONELLA TYPHIMURIUM, Strain/Indicator: TA104, Metabolic Activation: RAT, LIVER, S-9, AROCLOR 1254 (0.55 MG), Method: STANDARD PLATE) was “active; positive”. For the same compound, the mutagenic call (Test System: AMES SALMONELLA TYPHIMURIUM, Strain/Indicator: TA1535, Metabolic Activation: RAT, LIVER, S-9, AROCLOR 1254 (0.55 MG), Method: STANDARD PLATE) was “inactive; negative”, the mutagenic call (Test System: AMES SALMONELLA TYPHIMURIUM, Strain/Indicator: TA1537, Metabolic Activation: RAT, LIVER, S-9, AROCLOR 1254 (0.55 MG), Method: STANDARD PLATE) was “active; positive” and the mutagenic call (Test System: AMES SALMONELLA TYPHIMURIUM, Strain/Indicator: TA1538, Metabolic Activation: RAT, LIVER, S-9, AROCLOR 1254 (0.55 MG), Method: STANDARD PLATE) was “active; positive”.
`Cc1ccccc1N=O` was tested, and the mutagenic call [1] was “inactive; negative”, the mutagenic call (Test System: AMES SALMONELLA TYPHIMURIUM, Strain/Indicator: TA98, Metabolic Activation: RAT, LIVER, S-9, AROCLOR 1254, Method: PREINCUBATION) was “inactive; negative” and the mutagenic call (Test System: AMES SALMONELLA TYPHIMURIUM, Strain/Indicator: TA98, Metabolic Activation: RAT, LIVER, S-9, AROCLOR 1254, Method: STANDARD PLATE) was “inactive; negative”. The mutagenic call [2] was “inactive; negative” and the mutagenic call (Test System: AMES SALMONELLA TYPHIMURIUM, Strain/Indicator: TA100, Metabolic Activation: RAT, LIVER, S-9, AROCLOR 1254, Method: STANDARD PLATE) was “active; positive”.
With `COc1cccc(CN(C)N=O)c1` the mutagenic call (Test System: AMES SALMONELLA TYPHIMURIUM, Strain/Indicator: TA1535, Metabolic Activation: HAMSTER, LIVER, S-9, AROCLOR 1254, Method: STANDARD PLATE) was “active; positive” and the mutagenic call (Test System: AMES SALMONELLA TYPHIMURIUM, Strain/Indicator: TA1535, Metabolic Activation: NONE, Method: STANDARD PLATE) was “inactive; negative”.
`CC1(C)CC2=C(C=O)[C@@]3(C=O)C[C@@]3(C)[C@@H](O)[C@@H]2C1` was tested, and the mutagenic call [1] was “active; positive”, the mutagenic call [2] was “active; positive” and the mutagenic call (Test System: CHINESE HAMSTER V-79, Strain/Indicator: V-79/6-THIOGUANINE (HGPRT), Metabolic Activation: NONE) was “inactive; negative”.
`CC(CO)[N+](=O)[O-]` (stereo not drawn) was tested, and the mutagenic call (Test System: AMES SALMONELLA TYPHIMURIUM, Strain/Indicator: TA98, Metabolic Activation: NONE, Method: PREINCUBATION) was “inactive; negative”, the mutagenic call (Test System: AMES SALMONELLA TYPHIMURIUM, Strain/Indicator: TA98, Metabolic Activation: RAT, LIVER, S-9, AROCLOR, Method: PREINCUBATION) was “inactive; negative” and the mutagenic call (Test System: AMES SALMONELLA TYPHIMURIUM, Strain/Indicator: TA100, Metabolic Activation: NONE, Method: PREINCUBATION) was “inactive; negative”. For the same compound, the mutagenic call (Test System: AMES SALMONELLA TYPHIMURIUM, Strain/Indicator: TA100, Metabolic Activation: RAT, LIVER, S-9, AROCLOR, Method: PREINCUBATION) was “inactive; negative”, the mutagenic call (Test System: AMES SALMONELLA TYPHIMURIUM, Strain/Indicator: TA102, Metabolic Activation: NONE, Method: PREINCUBATION) was “inactive; negative” and the mutagenic call (Test System: AMES SALMONELLA TYPHIMURIUM, Strain/Indicator: TA102, Metabolic Activation: RAT, LIVER, S-9, AROCLOR, Method: PREINCUBATION) was “inactive; negative”.
`Nc1ccc(N=Nc2ccc(-c3ccc(N=Nc4c(S(=O)(=O)O)cc5c(c4N)C(=O)/C(=N/Nc4ccccc4)C(S(=O)(=O)O)=C5)cc3)cc2)c(N)c1` was tested, and the mutagenic call (Test System: AMES SALMONELLA TYPHIMURIUM, Strain/Indicator: SV50, Metabolic Activation: HAMSTER, LIVER, S-9, Method: PREINCUBATION (PRIVAL METHOD)) was “active; positive”, the mutagenic call (Test System: AMES SALMONELLA TYPHIMURIUM, Strain/Indicator: SV50, Metabolic Activation: RAT, LIVER, S-9, AROCLOR 1254, Method: PREINCUBATION (PRIVAL METHOD)) was “active; positive” and the mutagenic call (Test System: AMES SALMONELLA TYPHIMURIUM, Strain/Indicator: TA98, Metabolic Activation: HAMSTER, LIVER, S-9, Method: PREINCUBATION (PRIVAL METHOD)) was “active; positive”. For the same compound, the mutagenic call [1] was “inactive; negative”, the mutagenic call (Test System: AMES SALMONELLA TYPHIMURIUM, Strain/Indicator: TA98, Metabolic Activation: RAT, LIVER, S-9, AROCLOR 1254, Method: PREINCUBATION (PRIVAL METHOD)) was “active; positive” and the mutagenic call (Test System: AMES SALMONELLA TYPHIMURIUM, Strain/Indicator: TA98, Metabolic Activation: RAT, LIVER, S-9, PHENOBARBITAL, Method: STANDARD PLATE) was “inactive; negative”. The mutagenic call [2] was “inactive; negative”, the mutagenic call (Test System: AMES SALMONELLA TYPHIMURIUM, Strain/Indicator: TA100, Metabolic Activation: RAT, LIVER, S-9, PHENOBARBITAL, Method: STANDARD PLATE) was “inactive; negative” and the mutagenic call (Test System: AMES SALMONELLA TYPHIMURIUM, Strain/Indicator: TA1538, Metabolic Activation: NONE, Method: STANDARD PLATE) was “inactive; negative”. The mutagenic call (Test System: AMES SALMONELLA TYPHIMURIUM, Strain/Indicator: TA1538, Metabolic Activation: RAT, LIVER, S-9, AROCLOR 1254, Method: STANDARD PLATE) was “active; positive”, the mutagenic call (Test System: Ames Salmonella typhimurium, Strain/Indicator: TA98, Metabolic Activation: Rat, Liver, S-9, Sodium phenobarbitone, Method: Preincubation) was “active; positive, test conducted under both aerobic and anaerobic conditions” and the mutagenic call (Test System: Ames Salmonella typhimurium, Strain/Indicator: TA1538, Metabolic Activation: Rat, Liver, S-9, Sodium phenobarbitone, Method: Preincubation) was “active; positive, test conducted under both aerobic and anaerobic conditions”.
For `CCCCCC(O)/C=C/C=O` (stereo not drawn), the mutagenic call (End Point: IN VITRO CHROMOSOMAL ABERRATIONS, Test System: RAT HEPATOCYTES, Metabolic Activation: NONE) was “active; positive”, the mutagenic call (End Point: IN VITRO CHROMOSOMAL ABERRATIONS, Test System: SWINE- BRAIN ENDOTHELIAL CELLS, Metabolic Activation: NONE) was “active; positive” and the mutagenic call (End Point: IN VITRO MICRONUCLEUS, Test System: RAT HEPATOCYTES, Metabolic Activation: NONE) was “active; positive”. The mutagenic call (End Point: IN VITRO MICRONUCLEUS, Test System: SWINE- BRAIN ENDOTHELIAL CELLS, Metabolic Activation: NONE) was “active; positive”, the mutagenic call (Test System: AMES SALMONELLA TYPHIMURIUM, Strain/Indicator: TA100, Metabolic Activation: NONE) was “inactive; negative” and the mutagenic call (Test System: AMES SALMONELLA TYPHIMURIUM, Strain/Indicator: TA104, Metabolic Activation: NONE) was “inactive; negative”. The mutagenic call (Test System: CHINESE HAMSTER V-79, Strain/Indicator: V-79/6-THIOGUANINE, Metabolic Activation: NONE) was “active; positive” and the mutagenic call (Test System: MOUSE LYMPHOMA, Strain/Indicator: L5178Y (TK+/TK-), Metabolic Activation: NONE, Method: SUSPENSION/PLATE) was “active; positive; administered as acetate”.
